One experiment has as its target Cannabinoid receptor 1 (Homo sapiens, UniProt P21554). The experiment is described as follows: (§1) cAMP Assay: CHO cells expressing human CB1 or CB2 receptors are seeded 17-24 hours prior to the experiment 50.000 cells per well in a black 96 well plate with flat clear bottom (Corning Costar #3904) in DMEM (Invitrogen No. 31331), 1×HT supplement, with 10% fetal calf serum and incubated at 5% CO2 and 37° C. in a humidified incubator. The growth medium was exchanged with Krebs Ringer Bicarbonate buffer with 1 mM IBMX and incubated at 30° C. for 30 min. Compounds were added to a final assay volume of 100 μl and incubated for 30 min at 30° C. Using the cAMP-Nano-TRF detection kit the assay (Roche Diagnostics) was stopped by the addition of 50 μl lysis reagent (Tris, NaCl, 1.5% Triton X100, 2.5% NP40, 10% NaN3) and 50 μl detection solutions (20 μM mAb Alexa700-cAMP 1:1, and 48 μM Ruthenium-2-AHA-cAMP) and shaken for 2 h at room temperature. The time-resolved energy transfer is measured by a TRF reader (Evotec Technologies GmbH), equipped with a ND:YAG laser as excitation source. The plate is measured twice with the excitation at 355 nm and at the emission with a delay of 100 ns and a gate of 100 ns, total exposure time 10 s at 730 (bandwidth 30 nm) or 645 nm (bandwidth 75 nm), respectively.

Another experiment has as its target Cannabinoid receptor 2 (Homo sapiens, UniProt P34972). Described as §1.

Broadly, the EC50 is the concentration that produces a half-maximal response. The low end stands for higher potency in that assay, the high end for lower potency in that assay.

Each structure is given as a SMILES string.

Chain of Cannabinoid receptor 1 (P21554 whole entry): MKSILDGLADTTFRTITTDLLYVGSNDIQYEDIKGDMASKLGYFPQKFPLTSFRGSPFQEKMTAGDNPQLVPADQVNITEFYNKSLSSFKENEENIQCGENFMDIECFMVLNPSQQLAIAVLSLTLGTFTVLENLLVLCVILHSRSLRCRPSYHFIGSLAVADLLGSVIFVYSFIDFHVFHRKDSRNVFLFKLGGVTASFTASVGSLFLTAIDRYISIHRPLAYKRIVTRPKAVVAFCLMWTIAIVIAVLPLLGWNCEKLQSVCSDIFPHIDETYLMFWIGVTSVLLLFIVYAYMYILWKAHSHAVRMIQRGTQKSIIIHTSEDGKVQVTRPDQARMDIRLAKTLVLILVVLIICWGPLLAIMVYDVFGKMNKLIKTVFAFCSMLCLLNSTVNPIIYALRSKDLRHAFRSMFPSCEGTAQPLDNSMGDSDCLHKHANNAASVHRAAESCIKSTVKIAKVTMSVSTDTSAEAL
Chain of Cannabinoid receptor 2 (P34972 whole entry): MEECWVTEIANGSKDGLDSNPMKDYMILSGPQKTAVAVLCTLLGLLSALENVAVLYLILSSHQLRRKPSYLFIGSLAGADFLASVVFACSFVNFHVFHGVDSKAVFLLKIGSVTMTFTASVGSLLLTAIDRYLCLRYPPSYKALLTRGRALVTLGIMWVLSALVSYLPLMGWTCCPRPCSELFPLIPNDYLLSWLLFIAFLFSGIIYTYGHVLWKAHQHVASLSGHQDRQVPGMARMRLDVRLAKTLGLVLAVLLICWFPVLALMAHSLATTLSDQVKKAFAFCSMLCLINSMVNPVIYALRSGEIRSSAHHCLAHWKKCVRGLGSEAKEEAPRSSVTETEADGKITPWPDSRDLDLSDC

In the case of `Cn1nccc1-c1nc(C(C)(C)C)nc2c1nnn2CCC(F)(F)F`, the EC50 is above 10000 nM at Cannabinoid receptor 1 and 131 nM on Cannabinoid receptor 2.

With `Cc1nonc1Cn1nnc2c(-c3ccc(F)nc3)nc(C(C)(C)C)nc21`, the results for the EC50 at Cannabinoid receptor 1 and at Cannabinoid receptor 2 were above 10000 nM and 639 nM, respectively.

(Values after ChEMBL document CHEMBL5726188, “Triazolo[4,5-D]pyrimidines” (2019).)
